Test results published in PubChem BioAssay AID2060508 (Molecular Pharmacology Branch, DTP, NCI, 2025).
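Further: spheroids exposed to compounds for seven days; 100% = DMSO vehicle control viability.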

What follows are compounds tested on 454973-116-R2-J3-PDC spheroids, viability, % test/control (assay: Anticancer human tumor 454973-116-R2-J3-PDC patient-derived pancreatic carcinoma cell line growth inhibition [GQUAD]). Conditions: second compound 0.316 µM; first compound 1 µM; stronger effect = lower value; spheroids with HUVEC and MSC.
In short: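 Tumor cells were grown as complex spheroids with HUVEC endothelial cells and mesenchymal stem cells as stroma. G-quadruplex stabilizers were combined with targeted agents over half-log dilutions from near the clinical Cmax, or from 10 microM.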
With `CC1COCCN1c1cc(-c2ccnn2C)c2ccnc(-c3ccn[nH]3)c2n1` (stereo unspecified) + CN(C)c1ccc(Nc2c3ccc(NC(=O)CCN4CCCC4)cc3nc3cc(NC(=O)CCN4CCCC4)ccc23)cc1 the viability, T/C was 21.3%.
With `CC1COCCN1c1cc(C2(S(C)(=N)=O)CC2)nc(-c2ccnc3[nH]ccc23)n1` (stereo unspecified) + CN(C)c1ccc(Nc2c3ccc(NC(=O)CCN4CCCC4)cc3nc3cc(NC(=O)CCN4CCCC4)ccc23)cc1 the viability, T/C was 100%.
`COc1ccc([C@@H](O)c2cc(-c3ncnc4cc(N5CCOCC5)ccc34)c(F)cc2Cl)nn1` + CN(C)c1ccc(Nc2c3ccc(NC(=O)CCN4CCCC4)cc3nc3cc(NC(=O)CCN4CCCC4)ccc23)cc1 showed a viability, T/C of 76.1%.

Same assay, conditions: second compound 0.316 µM; first compound 3.16 µM; stronger effect = lower value; spheroids with HUVEC and MSC
`CC1COCCN1c1cc(-c2ccnn2C)c2ccnc(-c3ccn[nH]3)c2n1` (stereo unspecified) + CN(C)c1ccc(Nc2c3ccc(NC(=O)CCN4CCCC4)cc3nc3cc(NC(=O)CCN4CCCC4)ccc23)cc1 showed a viability, T/C of 21.7%.
For `CC1COCCN1c1cc(C2(S(C)(=N)=O)CC2)nc(-c2ccnc3[nH]ccc23)n1` (stereo unspecified) + CN(C)c1ccc(Nc2c3ccc(NC(=O)CCN4CCCC4)cc3nc3cc(NC(=O)CCN4CCCC4)ccc23)cc1, the viability, T/C was 71.1%.
Compound `COc1ccc([C@@H](O)c2cc(-c3ncnc4cc(N5CCOCC5)ccc34)c(F)cc2Cl)nn1` + CN(C)c1ccc(Nc2c3ccc(NC(=O)CCN4CCCC4)cc3nc3cc(NC(=O)CCN4CCCC4)ccc23)cc1 has a viability, T/C of 66.5%.

Same assay, conditions: second compound 0.316 µM; first compound 10 µM; stronger effect = lower value; spheroids with HUVEC and MSC
`CC1COCCN1c1cc(-c2ccnn2C)c2ccnc(-c3ccn[nH]3)c2n1` (stereo unspecified) + CN(C)c1ccc(Nc2c3ccc(NC(=O)CCN4CCCC4)cc3nc3cc(NC(=O)CCN4CCCC4)ccc23)cc1 was tested, and the viability, T/C was 29.4%.
`CC1COCCN1c1cc(C2(S(C)(=N)=O)CC2)nc(-c2ccnc3[nH]ccc23)n1` (stereo unspecified) + CN(C)c1ccc(Nc2c3ccc(NC(=O)CCN4CCCC4)cc3nc3cc(NC(=O)CCN4CCCC4)ccc23)cc1 was tested, and the viability, T/C was 33%.
With `COc1ccc([C@@H](O)c2cc(-c3ncnc4cc(N5CCOCC5)ccc34)c(F)cc2Cl)nn1` + CN(C)c1ccc(Nc2c3ccc(NC(=O)CCN4CCCC4)cc3nc3cc(NC(=O)CCN4CCCC4)ccc23)cc1 the viability, T/C was 48.5%.

Same assay, conditions: second compound 1 µM; first compound 0.0316 µM; stronger effect = lower value; spheroids with HUVEC and MSC
`CC1COCCN1c1cc(-c2ccnn2C)c2ccnc(-c3ccn[nH]3)c2n1` (stereo unspecified) + CN(C)c1ccc(Nc2c3ccc(NC(=O)CCN4CCCC4)cc3nc3cc(NC(=O)CCN4CCCC4)ccc23)cc1 gave a viability, T/C of 91.3%.
Work on `CC1COCCN1c1cc(C2(S(C)(=N)=O)CC2)nc(-c2ccnc3[nH]ccc23)n1` (stereo unspecified) + CN(C)c1ccc(Nc2c3ccc(NC(=O)CCN4CCCC4)cc3nc3cc(NC(=O)CCN4CCCC4)ccc23)cc1 yielded a viability, T/C of 94.4%.
In the case of `COc1ccc([C@@H](O)c2cc(-c3ncnc4cc(N5CCOCC5)ccc34)c(F)cc2Cl)nn1` + CN(C)c1ccc(Nc2c3ccc(NC(=O)CCN4CCCC4)cc3nc3cc(NC(=O)CCN4CCCC4)ccc23)cc1, the viability, T/C is reported as 89.5%.

Same assay, conditions: second compound 1 µM; first compound 0.1 µM; stronger effect = lower value; spheroids with HUVEC and MSC
`CC1COCCN1c1cc(-c2ccnn2C)c2ccnc(-c3ccn[nH]3)c2n1` (stereo unspecified) + CN(C)c1ccc(Nc2c3ccc(NC(=O)CCN4CCCC4)cc3nc3cc(NC(=O)CCN4CCCC4)ccc23)cc1 showed a viability, T/C of 63.1%.
Compound `CC1COCCN1c1cc(C2(S(C)(=N)=O)CC2)nc(-c2ccnc3[nH]ccc23)n1` (stereo unspecified) + CN(C)c1ccc(Nc2c3ccc(NC(=O)CCN4CCCC4)cc3nc3cc(NC(=O)CCN4CCCC4)ccc23)cc1 has a viability, T/C of 95.1%.
In the case of `COc1ccc([C@@H](O)c2cc(-c3ncnc4cc(N5CCOCC5)ccc34)c(F)cc2Cl)nn1` + CN(C)c1ccc(Nc2c3ccc(NC(=O)CCN4CCCC4)cc3nc3cc(NC(=O)CCN4CCCC4)ccc23)cc1, the viability, T/C is reported as 86.3%.

Same assay, conditions: second compound 1 µM; first compound 0.316 µM; stronger effect = lower value; spheroids with HUVEC and MSC
For `CC1COCCN1c1cc(-c2ccnn2C)c2ccnc(-c3ccn[nH]3)c2n1` (stereo unspecified) + CN(C)c1ccc(Nc2c3ccc(NC(=O)CCN4CCCC4)cc3nc3cc(NC(=O)CCN4CCCC4)ccc23)cc1, the viability, T/C was 36.2%.
Compound `CC1COCCN1c1cc(C2(S(C)(=N)=O)CC2)nc(-c2ccnc3[nH]ccc23)n1` (stereo unspecified) + CN(C)c1ccc(Nc2c3ccc(NC(=O)CCN4CCCC4)cc3nc3cc(NC(=O)CCN4CCCC4)ccc23)cc1 has a viability, T/C of 110%.
`COc1ccc([C@@H](O)c2cc(-c3ncnc4cc(N5CCOCC5)ccc34)c(F)cc2Cl)nn1` + CN(C)c1ccc(Nc2c3ccc(NC(=O)CCN4CCCC4)cc3nc3cc(NC(=O)CCN4CCCC4)ccc23)cc1 gave a viability, T/C of 88.2%.

Same assay, conditions: second compound 1 µM; first compound 1 µM; stronger effect = lower value; spheroids with HUVEC and MSC
`CC1COCCN1c1cc(-c2ccnn2C)c2ccnc(-c3ccn[nH]3)c2n1` (stereo unspecified) + CN(C)c1ccc(Nc2c3ccc(NC(=O)CCN4CCCC4)cc3nc3cc(NC(=O)CCN4CCCC4)ccc23)cc1 showed a viability, T/C of 20.8%.
Work on `CC1COCCN1c1cc(C2(S(C)(=N)=O)CC2)nc(-c2ccnc3[nH]ccc23)n1` (stereo unspecified) + CN(C)c1ccc(Nc2c3ccc(NC(=O)CCN4CCCC4)cc3nc3cc(NC(=O)CCN4CCCC4)ccc23)cc1 yielded a viability, T/C of 77.2%.
For `COc1ccc([C@@H](O)c2cc(-c3ncnc4cc(N5CCOCC5)ccc34)c(F)cc2Cl)nn1` + CN(C)c1ccc(Nc2c3ccc(NC(=O)CCN4CCCC4)cc3nc3cc(NC(=O)CCN4CCCC4)ccc23)cc1, the viability, T/C was 76.6%.

Same assay, conditions: second compound 1 µM; first compound 3.16 µM; stronger effect = lower value; spheroids with HUVEC and MSC
For `CC1COCCN1c1cc(-c2ccnn2C)c2ccnc(-c3ccn[nH]3)c2n1` (stereo unspecified) + CN(C)c1ccc(Nc2c3ccc(NC(=O)CCN4CCCC4)cc3nc3cc(NC(=O)CCN4CCCC4)ccc23)cc1, the viability, T/C was 22.6%.
With `CC1COCCN1c1cc(C2(S(C)(=N)=O)CC2)nc(-c2ccnc3[nH]ccc23)n1` (stereo unspecified) + CN(C)c1ccc(Nc2c3ccc(NC(=O)CCN4CCCC4)cc3nc3cc(NC(=O)CCN4CCCC4)ccc23)cc1 the viability, T/C was 63.9%.
`COc1ccc([C@@H](O)c2cc(-c3ncnc4cc(N5CCOCC5)ccc34)c(F)cc2Cl)nn1` + CN(C)c1ccc(Nc2c3ccc(NC(=O)CCN4CCCC4)cc3nc3cc(NC(=O)CCN4CCCC4)ccc23)cc1 gave a viability, T/C of 59.4%.

Same assay, conditions: second compound 1 µM; first compound 10 µM; stronger effect = lower value; spheroids with HUVEC and MSC
`CC1COCCN1c1cc(-c2ccnn2C)c2ccnc(-c3ccn[nH]3)c2n1` (stereo unspecified) + CN(C)c1ccc(Nc2c3ccc(NC(=O)CCN4CCCC4)cc3nc3cc(NC(=O)CCN4CCCC4)ccc23)cc1 gave a viability, T/C of 27.5%.
`CC1COCCN1c1cc(C2(S(C)(=N)=O)CC2)nc(-c2ccnc3[nH]ccc23)n1` (stereo unspecified) + CN(C)c1ccc(Nc2c3ccc(NC(=O)CCN4CCCC4)cc3nc3cc(NC(=O)CCN4CCCC4)ccc23)cc1 was tested, and the viability, T/C was 34.3%.
Work on `COc1ccc([C@@H](O)c2cc(-c3ncnc4cc(N5CCOCC5)ccc34)c(F)cc2Cl)nn1` + CN(C)c1ccc(Nc2c3ccc(NC(=O)CCN4CCCC4)cc3nc3cc(NC(=O)CCN4CCCC4)ccc23)cc1 yielded a viability, T/C of 44.7%.

Same assay, conditions: second compound 3.16 µM; first compound 0.0316 µM; stronger effect = lower value; spheroids with HUVEC and MSC
Work on `CC1COCCN1c1cc(-c2ccnn2C)c2ccnc(-c3ccn[nH]3)c2n1` (stereo unspecified) + CN(C)c1ccc(Nc2c3ccc(NC(=O)CCN4CCCC4)cc3nc3cc(NC(=O)CCN4CCCC4)ccc23)cc1 yielded a viability, T/C of 87%.
For `CC1COCCN1c1cc(C2(S(C)(=N)=O)CC2)nc(-c2ccnc3[nH]ccc23)n1` (stereo unspecified) + CN(C)c1ccc(Nc2c3ccc(NC(=O)CCN4CCCC4)cc3nc3cc(NC(=O)CCN4CCCC4)ccc23)cc1, the viability, T/C was 89%.
`COc1ccc([C@@H](O)c2cc(-c3ncnc4cc(N5CCOCC5)ccc34)c(F)cc2Cl)nn1` + CN(C)c1ccc(Nc2c3ccc(NC(=O)CCN4CCCC4)cc3nc3cc(NC(=O)CCN4CCCC4)ccc23)cc1 showed a viability, T/C of 86.1%.

Same assay, conditions: second compound 3.16 µM; first compound 0.1 µM; stronger effect = lower value; spheroids with HUVEC and MSC
With `CC1COCCN1c1cc(-c2ccnn2C)c2ccnc(-c3ccn[nH]3)c2n1` (stereo unspecified) + CN(C)c1ccc(Nc2c3ccc(NC(=O)CCN4CCCC4)cc3nc3cc(NC(=O)CCN4CCCC4)ccc23)cc1 the viability, T/C was 55.5%.
